Columns and labels:
[1] = system: B6CBA-Tg(HDexon1)62Gpb/1J transgenic (R6/2) mice; test: Rotarod test in transgenic mice model of Huntington's disease; type: in vivo; details: 5 mg/kg i.p. Day 0 to Day 3
Protocol: B6CBA-Tg(HDexon1)62Gpb/1J transgenic (R6/2) mice are transgenic for the 5-end of the human HD gene carrying (CAG) 115-(CAG) 150 repeat expansions. […] These symptoms appear between 6 and 8 weeks of age. Female B6CBa-Tg(HDexon1)62Gpb/1J transgenic mice (Jackson Laboratory, USA) were housed 5 per cage in an enriched environment under a light-dark cycle of 12 h-12 h (light on at 7.00 am, off at 7.00 pm) at a room temperature of 21±2° C., with 50±15% humidity. The mice had access to commercial mouse chow (mouse/rate breeding, ref. 9341 Provimi Kliba, Switzerland) and tap water. […] Two consecutive days before the first administration, animals were trained to use the rotarod: they were placed on an accelerating rotarod (Ugo Basile, Italy) for a maximum time of 450 seconds. They went through 2 training sessions starting with 4 rpm for 300 seconds, then staying at 40 rpm for 150 seconds. The two training sessions were given at 1 hour intervals. On the days of testing, each animal was subjected to one trial under the conditions described above. Each trial was terminated when the mouse fell or when it had stayed on the rotarod for 450 seconds. The mice were returned to their home cages after testing. Group 1: hemizygote Transgenic B6CBA-Tg(HDexon 1)62Gpb/1J mice treated with vehicle i.p. once a day for 4 days (from day 0 to day 3) Group 2: hemizygote Transgenic B6CBA-Tg(HDexon 1)62Gpb/1J mice treated with 5 mg/kg i.p. of test item once a day for 4 days (from day 0 to day 3) […] • Test item administration • Simplified Irwin test, 40 minutes after administration • Rotarod test, immediately after the simplified Irwin test • Test item administration • Simplified Irwin test, 40 min after administration • Rotarod test, immediately after simplified #Irwin test Simplified Irwin scores were analysed using non-parametric Mann-Whitney's U test. Locomotor activity data were analysed using Dunnett's t-test. Rotarod scores were analysed using the non-parametric Mann-Whitney's U-test. Statistical analyses were performed using the software Statview SE^+graphics software, Brain Power.

[2] = target: T1, monoamine oxidase isoform B (Homo sapiens, UniProt P27338); test: Monoamine oxidase B inhibition; type: biochemical
T1 sequence (P27338 1-520): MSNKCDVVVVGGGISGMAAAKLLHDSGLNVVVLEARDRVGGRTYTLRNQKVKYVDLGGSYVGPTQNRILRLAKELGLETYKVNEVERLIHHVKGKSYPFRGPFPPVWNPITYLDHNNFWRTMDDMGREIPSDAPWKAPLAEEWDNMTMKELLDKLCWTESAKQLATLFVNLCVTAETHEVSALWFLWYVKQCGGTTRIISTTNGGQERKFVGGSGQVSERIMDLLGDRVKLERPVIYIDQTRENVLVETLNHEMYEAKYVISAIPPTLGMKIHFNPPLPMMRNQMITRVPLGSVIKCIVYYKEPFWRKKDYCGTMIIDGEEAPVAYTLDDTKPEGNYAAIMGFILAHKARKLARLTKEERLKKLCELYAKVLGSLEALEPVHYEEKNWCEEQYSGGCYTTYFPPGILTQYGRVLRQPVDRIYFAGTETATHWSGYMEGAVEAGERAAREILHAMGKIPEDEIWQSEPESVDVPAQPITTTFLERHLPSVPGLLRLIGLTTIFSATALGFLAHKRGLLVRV

[3] = target: 5-hydroxytryptamine isoform 1b (Homo sapiens, UniProt P28222); test: 5-hydroxytryptamine 1b inhibition; type: binding
Chain of 5-hydroxytryptamine isoform 1b (P28222 whole entry, canonical isoform): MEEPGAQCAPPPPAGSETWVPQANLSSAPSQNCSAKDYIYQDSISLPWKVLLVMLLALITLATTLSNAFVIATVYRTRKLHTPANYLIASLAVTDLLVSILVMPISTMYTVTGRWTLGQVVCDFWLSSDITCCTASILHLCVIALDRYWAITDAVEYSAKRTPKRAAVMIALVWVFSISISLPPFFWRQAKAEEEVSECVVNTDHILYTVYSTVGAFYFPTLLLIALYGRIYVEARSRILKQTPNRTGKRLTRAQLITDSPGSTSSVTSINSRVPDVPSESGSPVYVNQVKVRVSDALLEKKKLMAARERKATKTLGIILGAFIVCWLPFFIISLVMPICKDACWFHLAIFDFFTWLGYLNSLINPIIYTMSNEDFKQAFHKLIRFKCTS

dopamine receptor = test: Dopamine receptor binding
adrenergic receptors = test: Adrenergic receptor inhibition; type: binding

In the case of `COc1cc2c(cc1OC)[C@H]1C[C@H](O)[C@@H](CC(C)C)CN1CC2` (single isomer, unassigned) [Isomer B], the “Measured latencies to fall from Rotarod” value ([1]; Day 0, prior to 1st administration) is reported as 68.4 ± 17.7 s, the “Measured latencies to fall from Rotarod” value ([1]; Day 1) is reported as 91.4 ± 18.1 s and the “Measured latencies to fall from Rotarod” value ([1]; Day 3) is reported as 59.4 ± 11.2 s. The “Measured latencies to fall from Rotarod” value ([1]; Day 9) was 29.0 ± 12.1 s, the “Measured latencies to fall from Rotarod” value ([1]; Day 17) was 30.0 ± 11.0 s and the “Measured latencies to fall from Rotarod” value ([1]; Day 21) was 22.1 ± 7.3 s. The “Measured latencies to fall from Rotarod” value ([1]; Day 24) was 14.8 ± 4.3 s, the “Measured latencies to fall from Rotarod” value ([1]; Day 27) was 15.8 ± 5.2 s and the “Measured latencies to fall from Rotarod” value ([1]; Day 31) was 7.8 ± 2.4 s. The “inhibitory activity against monoamine oxidase isoform B” value [2] was “no inhibitory activity”, the “inhibitory activity against 5-hydroxytryptamine isoform 1b” value [3] was “no inhibitory activity” and the “dopamine receptor binding activity” value (dopamine receptor) was “only weak or non-existent”. For the same molecule, the “inhibition of the adrenergic receptors” value (adrenergic receptors) was “either weakly active or inactive”.
